Measured values published in PMC9298352, “Design, Synthesis and Structural Analysis of Glucocerebrosidase Imaging Agents” (Chemistry (Weinheim an Der Bergstrasse, Germany), 2021).
Where two headings read alike, the source gives them in different places.

Tests used:
Type in all cases: biochemical
[1] = target: T1, recombinant human GBA (rhGBA, Imiglucerase) (Homo sapiens, UniProt P04062, R534H); assay: In vitro apparent IC50, fluorogenic substrate assay on rhGBA
T1 construct: purchased Sanofi Genzyme (Cambridge, MA, USA)
T1 sequence (P04062 40-536 R534H): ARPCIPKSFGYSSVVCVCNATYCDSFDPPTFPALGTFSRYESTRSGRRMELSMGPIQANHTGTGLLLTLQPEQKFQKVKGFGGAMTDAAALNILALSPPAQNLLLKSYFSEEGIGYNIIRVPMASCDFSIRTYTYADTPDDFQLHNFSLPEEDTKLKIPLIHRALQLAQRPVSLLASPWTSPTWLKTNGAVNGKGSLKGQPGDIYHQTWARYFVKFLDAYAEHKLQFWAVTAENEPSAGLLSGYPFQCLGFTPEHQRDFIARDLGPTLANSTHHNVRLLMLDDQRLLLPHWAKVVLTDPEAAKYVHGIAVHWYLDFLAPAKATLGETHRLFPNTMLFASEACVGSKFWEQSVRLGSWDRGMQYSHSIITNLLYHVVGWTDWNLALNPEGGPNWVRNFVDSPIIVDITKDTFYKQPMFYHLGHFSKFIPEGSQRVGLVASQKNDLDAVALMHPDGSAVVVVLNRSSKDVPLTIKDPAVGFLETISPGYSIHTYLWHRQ
Description: (§1) All assays were performed in duplicate sets, each with 3 technical replicates at each inhibitor concentration. DMSO concentration was kept at 0.5 %–1 % (v/v) in all assays during incubation with compounds. In vitro apparent IC50 values were calculated by fitting data with [inhibitor] vs. response‐various slope (four parameters) function using Graphpad Prism 7.0 software. Average values and standard deviations were calculated from the two sets.

[2] = target: T2, human GBA2 (from lysates of GBA2 overexpressed cells) (Homo sapiens, UniProt Q9HCG7); assay: In vitro apparent IC50, fluorogenic substrate assay on GBA2 in lysates of overexpressing cells
T2 construct: expressed in transfected cells; host or cells: HEK293T
T2 sequence (Q9HCG7 1-927): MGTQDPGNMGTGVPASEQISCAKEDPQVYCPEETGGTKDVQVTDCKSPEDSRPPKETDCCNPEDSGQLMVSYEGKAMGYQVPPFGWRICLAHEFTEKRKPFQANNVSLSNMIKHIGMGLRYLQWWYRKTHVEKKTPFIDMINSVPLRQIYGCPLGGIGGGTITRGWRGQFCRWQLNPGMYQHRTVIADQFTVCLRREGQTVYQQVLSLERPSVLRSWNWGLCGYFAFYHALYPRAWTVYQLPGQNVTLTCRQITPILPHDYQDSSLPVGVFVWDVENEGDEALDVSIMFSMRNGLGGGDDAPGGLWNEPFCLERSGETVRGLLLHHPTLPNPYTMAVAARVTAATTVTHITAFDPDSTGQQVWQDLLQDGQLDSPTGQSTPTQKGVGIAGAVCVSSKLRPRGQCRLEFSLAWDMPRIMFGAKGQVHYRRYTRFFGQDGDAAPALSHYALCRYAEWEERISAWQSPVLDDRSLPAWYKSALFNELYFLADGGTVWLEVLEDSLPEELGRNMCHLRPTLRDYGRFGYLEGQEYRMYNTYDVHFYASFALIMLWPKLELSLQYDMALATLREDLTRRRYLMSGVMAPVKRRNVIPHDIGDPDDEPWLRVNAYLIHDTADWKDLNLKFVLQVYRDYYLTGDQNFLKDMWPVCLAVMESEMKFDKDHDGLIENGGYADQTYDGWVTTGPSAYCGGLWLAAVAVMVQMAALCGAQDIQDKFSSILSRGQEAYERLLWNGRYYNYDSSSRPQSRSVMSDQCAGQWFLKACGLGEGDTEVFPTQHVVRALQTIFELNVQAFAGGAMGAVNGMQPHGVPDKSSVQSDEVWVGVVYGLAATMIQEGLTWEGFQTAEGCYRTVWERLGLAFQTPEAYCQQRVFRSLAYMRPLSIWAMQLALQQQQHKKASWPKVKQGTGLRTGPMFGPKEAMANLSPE
Description: as §1

[3] = target: T3, recombinant human GAA (rhGAA, Myozyme) (Homo sapiens, UniProt P10253); assay: In vitro apparent IC50, fluorogenic substrate assay on rhGAA
T3 construct: purchased Sanofi Genzyme (Cambridge, MA, USA)
Description: as §1

[4] = target: T4, GBA in mouse brain lysate (Mus musculus, UniProt P17439); assay: Fluorescent labeling of mouse brain lysate, GBA; conditions: 37 °C
T4 construct: from tissue; host or cells: mouse brain
T4 sequence (P17439 20-515): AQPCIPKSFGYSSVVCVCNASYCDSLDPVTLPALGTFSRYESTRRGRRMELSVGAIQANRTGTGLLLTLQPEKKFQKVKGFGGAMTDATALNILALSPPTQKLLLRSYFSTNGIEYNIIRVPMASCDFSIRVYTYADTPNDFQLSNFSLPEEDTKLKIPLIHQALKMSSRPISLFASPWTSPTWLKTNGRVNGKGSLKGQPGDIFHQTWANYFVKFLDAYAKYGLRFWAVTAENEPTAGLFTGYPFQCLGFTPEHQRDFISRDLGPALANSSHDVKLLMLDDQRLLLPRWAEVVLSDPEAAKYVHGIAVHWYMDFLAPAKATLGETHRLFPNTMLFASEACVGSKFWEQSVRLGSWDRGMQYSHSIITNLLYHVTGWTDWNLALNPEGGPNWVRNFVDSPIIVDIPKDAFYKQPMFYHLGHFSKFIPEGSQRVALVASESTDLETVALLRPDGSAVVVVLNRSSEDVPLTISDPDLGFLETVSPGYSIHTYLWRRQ
Description: We next investigated their labeling efficiency and selectivity toward GBA in mouse brain lysate at pH 5.2 (containing 0.2 % taurocholate and 0.1 % Triton‐100) and pH 5.8 as respective optimal conditions for GBA and GBA2 activities (Figure 7). […] Importantly, no labelling of GBA2 was observed up to 1000 nM, showing good GBA selectivity.
Labeling by broad‐spectrum β‐glucosidase ABP 8 is shown for comparison (100 nM, pH 5.2 or pH 5.8, 30 min, 37 °C).
Fluorescent labeling with broad‐spectrum ABP 8 was performed at 100 nM ABP concentration at 37 °C for 30 min at pH 5.2 (with 0.1 % (v/v) Triton X‐100 and 0.2 % (w/v) sodium taurocholate) or pH 5.8 respectively. Samples were then denatured with 4 μL Laemmli (5x) sample buffer and heated at 98 °C for 5 minutes. Proteins were resolved by electrophoresis in 10 % SDS‐PAGE gels, running at a constant of 90 V for 30 minutes followed by 120 V for approximately 60 minutes. Wet slab gels were scanned on fluorescence using a Typhoon FLA9500 Imager (GE Healthcare) using λEX 635 nm; λEM >665 nm and images were processed using ImageLab 5.2.1 (BioRad).

Compound: CCCCCCCCN1[C@@H]2[C@H](Cn3cc(CNC(=O)CCCCC[N+]4=C(/C=C/C=C/C=C5/N(C)c6ccccc6C5(C)C)C(C)(C)c5ccccc54)nn3)[C@@H](O)[C@H](O)[C@@H](O)[C@@H]21 (stereo partly drawn) [ABP 6]
- IC50 ([1]; 3 hr pre-incubation, read-out: apparent IC50 value, GBA): 53 nM
- IC50 ([1]; apparent IC50, 3 h pre-incubation, 4-methylumbelliferyl-β-glucoside substrate, ± SD from technical duplicates, read-out: In vitro rhGBA IC50): 53.1 ± 2.65 nM
- IC50 [2]: > 100000 nM
- IC50 [3]: > 100000 nM
- ABP concentration with significant labeling of GBA ([4]; pH 5.2 with 0.2 % taurocholate and 0.1 % Triton, 30 min): 10 nM
- ABP concentration with significant labeling of GBA ([4]; pH 5.8, 30 min): 1000 nM
